The Kd is the concentration at which binding is half-saturated.

Results on four molecules are retold here after PMC6159992, “Selective disruption of TLR2-MyD88 interaction inhibits inflammation and attenuates Alzheimer’s pathology” (The Journal of Clinical Investigation, 2018).

Series [1] concerns 5XFAD-Tg mice. Description: Gross motor activity of 5XFAD-Tg mice. The class given is in vivo, mouse. Conditions: 0.1 mg/kg BW/2 d intranasal, 30 days, n=8. The text has this: The ultimate objective of neuroprotection in AD is to improve and/or protect memory. Major functions of the hippocampus are to generate and organize long-term memory and spatial learning. Therefore, we examined whether WT TIDM peptide protected memory and learning in Tg mice. As expected, Tg mice took much longer to find the food reward hole and had greater latency (P < 0.001 [= 0.0000213]) with higher errors (P < 0.001 [= 0.0000251]) in the Barnes maze as compared with non-Tg mice. […] Likewise, on the T-maze test, untreated Tg mice also had fewer positive turns (P < 0.001 [= 0.0000440]) and a higher number of negative turns (P < 0.001 [= 0.000223]) than did age-matched non-Tg mice (Figure 6, L and M). […] We also monitored the short-term memory of Tg mice using the novel object recognition (NOR) test. […]
treatment, hippocampal extracts of all groups of mice (n=4 per group) were analyzed for protein levels of Aβ by Western blot using 82E1 mAb. […] Results were analyzed by […]
Figure S14. […] After 30d of treatment, ELISA quantification of Aβ1-40 (A, C & E) and Aβ1-42 (B, D & F) was performed in serum (A & B) and TBS (C & D) and (TBS+Triton X-100) (E & F) extracted hippocampal tissues. […]
Figure S15. […] After 30d of treatment, hippocampal extracts of all groups of mice (n=4 per group) were analyzed for phospho-tau and total tau by Western blot. […] Results were analyzed by two-sample t-tests. […]

Series [2] is described as follows: Hippocampal level of WT TIDM after intranasal administration (ESI-MS). The class given is in vivo. To be noted: male, B6SJL-Tg(APPSwFlLon,PSEN1*M146L*L286V)6799Vas/J (5XFAD), mouse, hippocampus (brain tissue), inhaled or intranasal, Tg mice, 1 intranasal dose 0.1 mg/kg BW, 60 minutes after administration, read-out: level of WT TIDM peptide in hippocampus. On the procedure:
It is becoming clear that glial inflammation plays an important role in the loss of neurons in AD and other neurodegenerative disorders ([7], [9], [22]–[24]). […] We first determined whether the WT TIDM peptide could enter into the hippocampus. Tg mice were treated with TIDM peptides intranasally, and after 60 minutes of administration, we detected WT TIDM peptide in the hippocampus of Tg mice by electrospray ionization–coupled mass spectrometry (ESI-MS) (Figure 5, A and C). […] The level of WT TIDM peptide was 23.33 ± 14.14 ng/g brain tissue in the hippocampus of WT TIDM–treated Tg mice compared with nil in the saline-treated Tg mice. By infrared scanning, we also detected TIDM peptide in hippocampus after intranasal treatment (Supplemental Figure 10). […]
Tg mice (6 months of age) received 1 intranasal dose of WT TIDM peptide (0.1 mg/kg BW). After 60 minutes of treatment, mice were perfused with sterile saline, and hippocampi were homogenized and supernatant analyzed for WT TIDM by ESI-MS (A, WT TIDM standard; B, untreated 5XFAD-Tg; C, WT TIDM–treated 5XFAD-Tg). […] Cells positive for Iba-1 (E, CA1; F, CA3), p-p65 (G, CA1; H, CA3), and iNOS (I, CA1; J, CA3) were counted in 2 sections (2 images/slide) from each of 6 different mice (n = 6) per group. ^†P < 0.001 versus non-Tg; ^††P < 0.001 versus Tg; 2-sample t test. […]

Series [3] concerns the target T1, cMyc-tagged C-terminal TIR domain of TLR2 protein (cTLR2), purified recombinant protein (mouse, UniProt Q9QUN7 640-784).
T1 construct: TLR2, mouse, C-terminal TIR domain, amino acids 640-784; subcloned from the full-length construct pLenti-cMyc-DDK/Tlr2 (Origene); also called cMyc-tagged cTLR2 recombinant protein; TLR2 (in the SPR methods)
Description: SPR; cTLR2 (0.8 mg/ml, PBS) immobilised on a 500-kDa carboxymethyl dextran gold sensor slide (Reichert 4SPR); WT TIDM and mTIDM peptides injected in PBS running buffer, 30 μl/min, 2.5 min association, 3 min dissociation; KD from the response at equilibrium versus peptide concentration. Conditions: both partners purified. In general terms: SPR reads the build-up and loss of mass on a sensor chip optically.

T1 sequence (Q9QUN7 640-784): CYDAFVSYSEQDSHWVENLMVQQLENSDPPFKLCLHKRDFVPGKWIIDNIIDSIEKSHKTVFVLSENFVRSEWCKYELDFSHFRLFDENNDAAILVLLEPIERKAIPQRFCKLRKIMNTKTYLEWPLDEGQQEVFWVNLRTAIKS

For `CC[C@H](C)[C@H](NC(=O)[C@H](CCCCN)NC(=O)[C@@H](NC(=O)[C@H](CCC(N)=O)NC(=O)[C@H](CCCNC(=N)N)NC(=O)[C@@H](N)CC(=O)O)[C@@H](C)CC)C(=O)N[C@@H](Cc1c[nH]c2ccccc12)C(=O)N[C@@H](Cc1ccccc1)C(=O)N[C@@H](CCC(N)=O)C(=O)N[C@@H](CC(N)=O)C(=O)N[C@@H](CCCNC(=N)N)C(=O)N[C@@H](CCCNC(=N)N)C(=O)N[C@@H](CCSC)C(=O)N[C@@H](CCCCN)C(=O)N[C@@H](Cc1c[nH]c2ccccc12)C(=O)N[C@@H](CCCCN)C(=O)N[C@@H](CCCCN)C(=O)N1CCC[C@H]1C(=O)NCC(=O)N[C@@H](C)C(=O)N[C@@H](Cc1c[nH]cn1)C(=O)N[C@@H](CCC(N)=O)C(=O)N[C@@H](CCCCN)C(=O)O` [WT TIDM], the “gross motor activity (movements, horizontal activity, rest time, stereotypy)” value in series [1] is listed as “neither the WT TIDM nor the mTIDM peptide modulated the gross motor activity of Tg mice”. In series [2], the tissue level at time at 1 h was 23.3 ± 14.1 ng/g.

Take `CC[C@H](C)[C@H](NC(=O)[C@H](CCCCN)NC(=O)[C@@H](NC(=O)[C@H](CCC(N)=O)NC(=O)[C@H](CCCNC(=N)N)NC(=O)[C@@H](N)CC(=O)O)[C@@H](C)CC)C(=O)N[C@@H](Cc1c[nH]c2ccccc12)C(=O)N[C@@H](Cc1ccccc1)C(=O)N[C@@H](CCC(N)=O)C(=O)N[C@@H](CC(N)=O)C(=O)N[C@@H](CCCNC(=N)N)C(=O)N[C@@H](CCCNC(=N)N)C(=O)N[C@@H](CCSC)C(=O)N[C@@H](CCCCN)C(=O)N[C@@H](Cc1c[nH]c2ccccc12)C(=O)N[C@@H](CCCCN)C(=O)N[C@@H](CCCCN)C(=O)N1CCC[C@H]1C(=O)NCC(=O)N[C@@H](Cc1c[nH]c2ccccc12)C(=O)N[C@@H](Cc1c[nH]cn1)C(=O)N[C@@H](CCC(N)=O)C(=O)N[C@@H](CC(=O)O)C(=O)O` [mTIDM]: the “gross motor activity (movements, horizontal activity, rest time, stereotypy)” value in series [1] was “neither the WT TIDM nor the mTIDM peptide modulated the gross motor activity of Tg mice”. Regarding DRQIKIWFQNRRMKWKKPGAHQK (Drosophila; the printed order is kept), in series [3], the Kd worked out at 8 µM.

B1: mutated TIDM peptide (peptide)
peptide: DRQIKIWFQNRRMKWKKPGWHQD
notes: Drosophila; MyD88, mouse, residues 245-250 of the CD loop with two underlined mutations (A to W, K to D); positions 247 and 250 counted from the printed limits 245 and 250; also called mTIDM
B1: in series [3], the Kd came to 19 µM.
